{
  "source": "paper PMC7044277",
  "about": "(Nature Communications, 2020)",
  "type_in_all_cases": "cell-based",
  "key": {"320 non-olfactory GPCRs [1]": {"target": "T1, 320 non-olfactory GPCRs (Homo sapiens, UniProt P25024)", "T1 construct": "expressed in transfected cells; host or cells: HTLA cells"}, "320 non-olfactory GPCRs [2]": {"target": "320 non-olfactory GPCRs (Homo sapiens, UniProt P14416)", "sequence (P14416 whole entry)": "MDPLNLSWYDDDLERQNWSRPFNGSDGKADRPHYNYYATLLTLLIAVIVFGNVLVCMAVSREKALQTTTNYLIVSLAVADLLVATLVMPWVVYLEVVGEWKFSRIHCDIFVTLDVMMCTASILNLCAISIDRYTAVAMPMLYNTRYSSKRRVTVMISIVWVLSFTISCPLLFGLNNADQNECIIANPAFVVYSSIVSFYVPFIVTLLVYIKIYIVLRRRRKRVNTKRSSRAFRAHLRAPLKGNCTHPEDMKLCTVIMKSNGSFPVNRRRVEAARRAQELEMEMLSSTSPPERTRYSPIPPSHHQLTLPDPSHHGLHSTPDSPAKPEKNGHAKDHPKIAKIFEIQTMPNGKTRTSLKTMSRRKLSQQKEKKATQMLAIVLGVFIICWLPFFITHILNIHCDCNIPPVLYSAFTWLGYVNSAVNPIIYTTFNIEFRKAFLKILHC"}, "320 non-olfactory GPCRs [3]": {"target": "T2, 320 non-olfactory GPCRs (Homo sapiens, UniProt Q86SQ6)", "T2 construct": "expressed in transfected cells; host or cells: HTLA cells"}, "DRD3 F1063.28A": {"target": "DRD3 F1063.28A (Homo sapiens, UniProt P35462, F106A)", "sequence (P35462 whole entry F106A)": "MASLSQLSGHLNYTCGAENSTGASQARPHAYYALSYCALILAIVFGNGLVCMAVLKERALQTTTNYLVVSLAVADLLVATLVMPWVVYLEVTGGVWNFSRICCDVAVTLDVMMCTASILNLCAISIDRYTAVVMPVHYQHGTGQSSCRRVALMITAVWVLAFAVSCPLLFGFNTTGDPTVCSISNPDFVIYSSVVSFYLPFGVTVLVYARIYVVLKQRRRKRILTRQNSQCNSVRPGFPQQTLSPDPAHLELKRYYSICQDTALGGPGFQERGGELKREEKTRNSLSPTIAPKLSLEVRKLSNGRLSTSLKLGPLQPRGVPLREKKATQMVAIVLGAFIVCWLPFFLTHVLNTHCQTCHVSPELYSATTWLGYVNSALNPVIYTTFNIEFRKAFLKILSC", "experiment": "cell-based"}},
  "note": "pEC50: −log10 of the molar value. Where “and” joins values, the source holds several entries; their conditions need not be identical. Equal values may be shown once.",
  "data": [
    {"compound": "CCOc1cccc2cc(C(C)NCC3(O)CCCCC3)oc12", "note": "(stereo not shown) [O4LE6];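 as to Fold of Basal: compound tested at 1 µM final concentration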", "values": [
      {"measurement": "Fold of Basal", "setting": "320 non-olfactory GPCRs [1]", "value": "1.143 and 1.163 and 1.159 and 1.512"},
      {"measurement": "Fold of Basal", "setting": "320 non-olfactory GPCRs [2]", "value": "84.6178 and 80.3873 and 78.6628 and 75.3887"},
      {"measurement": "Fold of Basal", "setting": "320 non-olfactory GPCRs [3]", "value": "0.9894 and 1.559 and 1.433 and 1.372"},
      {"measurement": "pEC50", "setting": "DRD3 F1063.28A", "value": "< 5.00"}
    ]}
  ]
}
